From patent US9321742B2, “N1-cyclic amine-N5-substituted biguanide derivatives, methods of preparing the same and pharmaceutical composition comprising the same” (IMMUNOMET THERAPEUTICS INC., priority 2011, dated 2016) come the findings set out here.

The structures appear in SMILES notation. Structures can show the parent of a compound that is named as a salt.

The subject of one data set is HCT116 cells. Nature of the data set: Measurement of effect of inhibiting cancer cell proliferation (MTT). It counts as cell-based. The following applies: Homo sapiens; for inhibition at 100 µM: HCT-116, 100 uM, 48 hours, read-out: Cell Growth Inhibition (%) at 100 uM; for GI50: HCT-116, 48 hours. An excerpt:
HCT116 cells derived from human colorectal cancer (commercially available from the Korean Cell Line Bank) were used, and the effect of inhibiting cancer cell proliferation of the biguanide derivative was confirmed by measuring the concentration value (cell growth inhibition concentration, GIC50) at which cell growth was inhibited by 50% using a 3-(4,5-dimethylthiazol-2-yl)-2,5-[…] bromide (MTT) reagent.
First, HCT116 cells were put on a 96-well plate and cultured in a DMEM medium containing 10% fetal bovine serum for 16 hours so that the cellcount in each well was approximately 5,000. Subsequently, to obtain the GIC50 value of each compound, culture media were treated with 100 μM, 25 μM, 6.25 μM, 1.56 μM or 0.39 μM of the compound, and then cultured for 48 hours. At this time, some of the compounds were treated with 200 μM instead of 100 μM. Metformin hydrochloride was used as the control, and the culture media were treated with 25, 12.5, 2.5, 0.5, 0.1 mM metformin hydrochloride, and then tested in the same manner as described in the derivatives synthesized in the examples. In order to determine whether the cells survived after treatment with the compound, MTT was added to the culture media which were then cultured for another 3 hours. Formed formazane crystals were dissolved using dimethyl sulfoxide (DMSO), and the absorbance of the resulting solution was measured at 560 nm. After the 48-hours culture, the ratio of the cell count cultured on a well plate not treated with the compound to the living cell count on a well plate treated with the compounds synthesized in the examples was indicated as cell viability (%) according to each treated concentration. A cell viability curve graph was plotted and the concentration (GIC50) value of the compound at which the growth was inhibited by 50% was calculated to confirm the effect of inhibition of cancer cell proliferation. Also, the cell growth viability (%) when the concentration of the treated biguanide derivative and the metformin hydrochloride as the control were 100 uM was shown.

A further data set has as its system AMPKα. Nature of the data set: Measurement of AMPK-activation effect (AMPKα Thr172 phosphorylation immunoassay in MCF7 cells). It counts as cell-based, human. The following applies: 24 hours; for AMPK activation effect 10 uM (%) / AMPK activation effect 50 uM (%): relative to untreated cells. The procedure: MCF7 cells derived from human breast cancer cells (commercially available from the Korean Cell Line Bank) were used, and the AMPK (5′-AMP-activated protein kinase alpha)-activation effect of the biguanide derivative was confirmed using an AMPKα immunoassay kit (Invitrogen, Catalog No. KH00651).
MCF7 cells were cultured in a DMEM medium supplemented with 10% fetal bovine serum. Thereafter, the cultured MCF7 cells were put into a 6-well plate with approximately 5×10^5 cells per well and cultured in an incubator supplied with 5% CO2. Culture media were treated with the derivatives synthesized in the examples at contents of 5, 10 and 50 μM, and then cultured for 24 hours. Metformin hydrochloride was used as the control, and the culture media were treated with 0.05, 0.5, 1, 2, 5 and 10 mM metformin hydrochloride, and then tested in the same manner as described in the derivatives synthesized in the examples. Subsequently, the cells were lysed according to a method presented in the operation manual of the AMPKα immunoassay kit, and 20 μg of a cell lysate was then yielded through protein assay. Thereafter, the AMPK activation effect was obtained by determining the degree of phosphorylation of 172nd threonine residue (Thr172) of the AMPKα from the cell lysate according to the method presented in the operation manual of the AMPKα immunoassay kit. […] A curve graph showing AMPK activation according to the concentration of the treated compounds was plotted based on the obtained AMPKα activation results, the concentration (activation concentration 150, AC150) value of the compound whose AMPK activation reached 150% was calculated using a GraphPad Prism 5.0 program, and the degrees of AMPK activation were obtained when concentrations of the treated biguanide derivatives were 10 μM and 50 μM and the metformin hydrochloride was 50 μM.

As a reminder, the melting point is the temperature, or range, at which the solid turns liquid. With `Cl.N=C(NCc1cccnc1)NC(=N)N1CCCCC1`, the melting point was 197 to 199 °C.
The same measure, in the same setting: the value for `Cl.N=C(NCc1ccccc1)NC(=N)N1CCCCC1` was 156 to 158 °C.
The inhibition is the change of the read-out against control, counted positive when it falls. As usually defined, the GI50 is the concentration giving 50% growth inhibition. In the case of `Cl.N=C(NCc1cccc(C(F)(F)F)c1)NC(=N)N1CCCCC1` [Example 7, N1-piperidine-N5-(3-trifluoromethyl)benzyl biguanide hydrochloride], the melting point lay within 259 to 260 °C. Also, in the data set on HCT116 cells, the inhibition at 100 µM came out at 97.4% and the 50% growth inhibitory concentration (GI50) amounted to 17.2 µM. In addition, in the data set with AMPKα, the “AMPK activation effect 10 uM (%)” value is on record as 582%, the “AMPK activation effect 50 uM (%)” value is recorded as 677% and the “AC150 (concentration at which AMPK activation reached 150%)” value turned out to be 1.0 µM.
`CNC(=N)NC(=N)N1CCCCC1.Cl` [Example 8, N1-piperidine-N5-methyl biguanide hydrochloride] showed a melting point of 211 to 212 °C. In the data set on HCT116 cells, the inhibition at 100 µM was 50.5% and the 50% growth inhibitory concentration (GI50) was found to be 88.6 µM. In addition, in the data set on AMPKα, the “AMPK activation effect 10 uM (%)” value was found to be 139%, the “AMPK activation effect 50 uM (%)” value is given as 500% and the “AC150 (concentration at which AMPK activation reached 150%)” value turned out to be 9.0 µM.
For the compound `CCCCNC(=N)NC(=N)N1CCCCC1.Cl` [Example 11, N1-piperidine-N5-butyl biguanide hydrochloride], the melting point lay within 113 to 114 °C. Besides, in the data set with HCT116 cells, the inhibition at 100 µM was 42.7% and the 50% growth inhibitory concentration (GI50) was above 100 µM. In the data set with AMPKα, the “AMPK activation effect 50 uM (%)” value amounted to 130% and the “AC150 (concentration at which AMPK activation reached 150%)” value is above 50 µM.
In turn, `Cl.N=C(NC(=N)N1CCCC1)NC1CCCC1` [Example 13, N1-pyrrolidine-N5-cyclopentyl biguanide hydrochloride] yielded a melting point of 200 to 201 °C. Besides, in the data set with HCT116 cells, the inhibition at 100 µM worked out at 41.9% and the concentration for 50% growth inhibition (GI50) is above 100 µM. Besides, in the data set on AMPKα, the “AMPK activation effect 10 uM (%)” value was found to be 131%, the “AMPK activation effect 50 uM (%)” value is reported as 375% and the “AC150 (concentration at which AMPK activation reached 150%)” value came out at 11.9 µM.
With `Cl.N=C(NC(=N)N1CCCCC1)NC1CCCC1` [Example 14, N1-piperidine-N5-cyclopentyl biguanide hydrochloride], the melting point lay within 154 to 155 °C. Besides, in the data set with HCT116 cells, the inhibition at 100 µM came out at 30.4% and the GI50 is above 100 µM. In the data set with AMPKα, the “AMPK activation effect 10 uM (%)” value is reported as 114%, the “AMPK activation effect 50 uM (%)” value is 157% and the “AC150 (concentration at which AMPK activation reached 150%)” value was determined as 38.3 µM.
Take `Cl.N=C(NC(=N)N1CCCCCC1)NC1CCCC1` [Example 15, N1-azepane-N5-cyclopentyl biguanide hydrochloride]: the melting point lay within 224 to 225 °C. Moreover, in the data set on HCT116 cells, the inhibition at 100 µM was determined as 27.9% and the GI50 is above 100 µM. Moreover, in the data set on AMPKα, the “AMPK activation effect 10 uM (%)” value came out at 174%, the “AMPK activation effect 50 uM (%)” value came to 291% and the “AC150 (concentration at which AMPK activation reached 150%)” value was 7.0 µM.
For the compound `Cl.N=C(NC(=N)N1CCCCC1)NC1CCCCC1` [Example 16, N1-piperidine-N5-cyclohexyl biguanide hydrochloride], the melting point fell in the range of 214 to 215 °C. In addition, in the data set on HCT116 cells, the inhibition at 100 µM is 49.1% and the concentration for 50% growth inhibition (GI50) was above 100 µM. For the same compound, in the data set on AMPKα, the “AMPK activation effect 10 uM (%)” value is 167%, the “AMPK activation effect 50 uM (%)” value is 486% and the “AC150 (concentration at which AMPK activation reached 150%)” value turned out to be 8.0 µM.
The compound `Cl.N=C(NC(=N)N1CCCC1)NC1CCCCCC1` [Example 17, N1-pyrrolidine-N5-cycloheptyl biguanide hydrochloride] returned a melting point of 265 to 266 °C. In addition, in the data set with HCT116 cells, the inhibition at 100 µM came out at 60.8% and it took 41 µM to inhibit growth by half (GI50). Moreover, in the data set on AMPKα, the “AMPK activation effect 10 uM (%)” value is 149%, the “AMPK activation effect 50 uM (%)” value amounted to 612% and the “AC150 (concentration at which AMPK activation reached 150%)” value stood at 7.9 µM.
`Cl.N=C(NC(=N)N1CCCCC1)NC1CCCCCC1` [Example 18, N1-piperidine-N5-cycloheptyl biguanide hydrochloride] yielded a melting point of 237 to 238 °C. Moreover, in the data set with HCT116 cells, the inhibition at 100 µM came to 64.3% and the GI50 is 23.1 µM. Also, in the data set with AMPKα, the “AMPK activation effect 10 uM (%)” value was determined as 304%, the “AMPK activation effect 50 uM (%)” value was 719% and the “AC150 (concentration at which AMPK activation reached 150%)” value is 2.2 µM.
In turn, `Cl.N=C(NC(=N)N1CCCCCC1)NC1CCCCCC1` [Example 19, N1-azepane-N5-cycloheptyl biguanide hydrochloride] yielded a melting point of 237 to 238 °C. Also, in the data set with HCT116 cells, the inhibition at 100 µM stood at 94.7% and it took 35.7 µM to inhibit growth by half (GI50). For the same compound, in the data set on AMPKα, the “AMPK activation effect 10 uM (%)” value came to 213%, the “AMPK activation effect 50 uM (%)” value is 325% and the “AC150 (concentration at which AMPK activation reached 150%)” value was 5.6 µM.
The compound `Cl.N=C(NCc1cccnc1)NC(=N)N1CCCC1` [Example 20, N1-pyrrolidine-N5-(pyridine-3-ylmethyl)biguanide hydrochloride] had a melting point of 201 to 203 °C. Moreover, in the data set on HCT116 cells, the inhibition at 100 µM was 9.2% and the GI50 is above 100 µM. In the data set with AMPKα, the “AMPK activation effect 10 uM (%)” value was found to be 71%, the “AMPK activation effect 50 uM (%)” value was 89% and the “AC150 (concentration at which AMPK activation reached 150%)” value was above 50 µM.
Regarding `Cl.N=C(NCc1cccc2ccccc12)NC(=N)N1CCCCC1` [Example 25, N1-piperidine-N5-(naphthalene-1-yl)methyl biguanide hydrochloride], in the data set on HCT116 cells, the inhibition at 100 µM stood at 96.6% and the GI50 stood at 28 µM. Moreover, in the data set with AMPKα, the “AMPK activation effect 50 uM (%)” value turned out to be 428% and the “AC150 (concentration at which AMPK activation reached 150%)” value turned out to be 8.0 µM.
`Cl.N=C(NCc1cccc(F)c1)NC(=N)N1CCCCC1` [Example 29, N1-piperidine-N5-(3-fluoro)bezyl biguanide hydrochloride] yielded a melting point of 171 to 172 °C. In the data set on AMPKα, the “AMPK activation effect 50 uM (%)” value was found to be 131% and the “AC150 (concentration at which AMPK activation reached 150%)” value is above 50 µM.
For `Cl.N=C(NCc1ccc(C(F)(F)F)cc1)NC(=N)N1CCCCC1` [Example 39, N1-piperidine-N5-(4-trifluoromethyl)benzyl biguanide hydrochloride], in the data set on HCT116 cells, the inhibition at 100 µM came out at 78.9% and the 50% growth inhibitory concentration (GI50) was determined as 16.2 µM. In addition, in the data set with AMPKα, the “AMPK activation effect 10 uM (%)” value is 476%, the “AMPK activation effect 50 uM (%)” value is on record as 615% and the “AC150 (concentration at which AMPK activation reached 150%)” value turned out to be 0.9 µM.
The matching figures for `CN1CCN(C(=N)NC(=N)NCc2ccc(OC(F)(F)F)cc2)CC1.Cl` [Example 43, N1-(4-methyl)piperazine-N5-(4-trifluoromethoxy)benzyl biguanide hydrochloride]: 97.7%, above 100 µM, 669%, 854% and 6.4 µM.
Take `CN(C)C(=N)N=C(N)N` [Metformin hydrochloride, reference compound]: in the data set on HCT116 cells, the inhibition at 100 µM turned out to be 1.8% and the GI50 was 2850 µM. Also, in the data set on AMPKα, the “AMPK activation effect 50 uM (%)” value is given as 130% and the “AC150 (concentration at which AMPK activation reached 150%)” value is 188.3 µM.
